Data published in patent US7332489B2, “Methods and compositions of novel triazine compounds” (Reddy US Therapeutics, Inc., priority 2003, dated 2008).
Counter-ions that a name gives are not always drawn. Like-named read-outs stand apart in the source and are kept apart here.

Test system: TNF-α induced IL-6
Experiment: TNF-α-induced IL-6 production determined by IL-6 ELISA
Type: cell-based
Details: for activity at 10 µM: Homo sapiens, 24 h; for Inflammation Data (result in words): concentration not given
Experimental: Human aortic endothelial cells (HAEC, Clonetics) were cultured according to manufacturer in growth medium (Clonetics): basal medium containing human epidermal growth factor, hydrocortisone, vascular endothelial growth factor, heparin binding growth factor-B, long R3-insulin-like growth factor-1, ascorbic acid, gentamicin/amphotericin and 5% FBS. These cell were allowed to reach at least 90% confluency before subjected to experimental treatments. […] Tumor necrosis factor α was from R&D Systems.
All treatments, compound-added and controls were carried out in serum free media containing 0.2% albumin. Media from all conditions were collected and used for IL-6 ELISA.
IL-6 ELISA was carried out using human IL-6 DuoSet ELISA development kit as described by manufacturer (R&D Systems). Mouse anti-human Il-6 was used as the capture antibody (2 ug/ml) and biotinylated goat anti-human IL-6 (200 ng/ml) was used as the detection antibody. Culture media were incubated with capture antibody (in 96 well) for 2 h at room temperature. Wells were washed three times with wash buffer (0.05% tween-20 in phosphate buffered saline (PBS) pH 7.4) followed by incubation with detection antibody for 2 h at room temperature. Following three washes wells were incubated with Streptavidin-HRP for 20 min. Color development was read at 450 nm in a Microplate reader.

[1] = Table 5, first part, class = % of control IL6 production, read-out: Inhibition of TNF-induced IL6 production
[2] = Table 5, second part, column 1, class = % of control IL6 production, read-out: Inhibition of TNF-induced IL6, production

Compound | activity at 10 µM [1] [%] | activity at 10 µM [2] [%] | other results
CCN1CCCC1CNc1nc(Nc2ccc(OC)c(F)c2)nc(NC2CCC(C)CC2)n1 (centres unmarked) [Compound 60, N^2-[(1-ethyl-2-pyrrolidinyl)methyl]-N^4-(3-fluoro-4-methoxyphenyl)-N^6-(4-methylcyclohexyl)-1,3,5-triazine-2,4,6-triamine] | 0 to 25 |  | 
COc1ccc(Nc2nc(NC3CCCCCC3)nc(N(C)C3CCN(C)CC3)n2)cc1F [Compound 169, N^2-cycloheptyl-N^4-(3-fluoro-4-methoxy-phenyl)-N^6-methyl-N^6-(1-methyl-piperidin-4-yl)-1,3,5-triazine-2,4,6-triamine succinate salt] |  |  | % IL6 production compare to TNF stimulation of IL6 (100%), HAEC, IL6, @ 5 uM (HAEC, TNF stimulated, compound 5 uM (bracketed value), succinate salt): 45%
CCN1CCCC1CNc1nc(NCC(F)(F)F)nc(Nc2ccc(OC)c(F)c2)n1 (centres unmarked) [Compound 67, N^2-[(1-ethyl-2-pyrrolidinyl)methyl]-N^4-(3-fluoro-4-methoxyphenyl)-N^6-(2,2,2-trifluoroethyl)-1,3,5-triazine-2,4,6-triamine] |  | 25 to 50 | 
CCN1CCCC1CNc1nc(NCc2ccco2)nc(Nc2ccc(OC)c(F)c2)n1 (centres unmarked) [Compound 66, N^2-[(1-ethyl-2-pyrrolidinyl)methyl]-N^4-(3-fluoro-4-methoxyphenyl)-N^6-(2-furylmethyl)-1,3,5-triazine-2,4,6-triamine] | 0 to 25 | 0 to 25 | 
COc1ccc(Nc2nc(NC3CCCCCC3)nc(OCCOc3ccccc3F)n2)cc1Cl |  |  | Inflammation Data (result in words): Not Active
CCN1CCCC1CNc1nc(Nc2ccc(OC)c(F)c2)nc(NC2CCCCCC2)n1 (centres unmarked) [Compound 95, N^2-cycloheptyl-N^4-[(1-ethyl-2-pyrrolidinyl)methyl]-N^6-(3-fluoro-4-methoxyphenyl)-1,3,5-triazine-2,4,6-triamine] |  |  | activity at 10 µM (read-out: Inhibition of TNF-induced IL6, production): 0 to 25%; activity at 10 µM (read-out: Inhibition of TNF-induced IL6 production): 0 to 25%
CCN1CCCC1CNc1nc(Nc2ccc(N3CCOCC3)cc2)nc(NC2CCCCCC2)n1 (centres unmarked) [Compound 27, N^2-cycloheptyl-N^4-[(1-ethyl-2-pyrrolidinyl)methyl]-N^6-[4-(4-morpholinyl)phenyl]-1,3,5-triazine-2,4,6-triamine] | 0 to 25 | 0 to 25 | 
CCN1CCCC1CNc1nc(Nc2ccc(OC)c(F)c2)nc(NC2CCCCC2)n1 (centres unmarked) [Compound 55, N^2-cyclohexyl-N^4-[(1-ethyl-2-pyrrolidinyl)methyl]-N^6-(3-fluoro-4-methoxyphenyl)-1,3,5-triazine-2,4,6-triamine] | 0 to 25 |  | 
CCN1CCCC1CNc1nc(Nc2ccccn2)nc(NC2CCCCCC2)n1 (centres unmarked) [Compound 34, N^2-cycloheptyl-N^4-[(1-ethyl-2-pyrrolidinyl)methyl]-N^6-(2-pyridinyl)-1,3,5-triazine-2,4,6-triamine] | 0 to 25 | 0 to 25 | 
CCN1CCCC1CNc1nc(Nc2ccc3ncccc3c2)nc(NC2CCCCCC2)n1 (centres unmarked) [Compound 4, N^2-cycloheptyl-N^4-[(1-ethyl-2-pyrrolidinyl)methyl]-N^6-(6-quinolinyl)-1,3,5-triazine-2,4,6-triamine] |  | 0 to 25 | 
CCN1CCCC1CNc1nc(Nc2cccc(NC(C)=O)c2)nc(NC2CCCCCC2)n1 (centres unmarked) [Compound 30, N-{3-[(4-(cycloheptylamino)-6-{[(1-ethyl-2-pyrrolidinyl)methyl]amino}-1,3,5-triazin-2-yl)-amino]phenyl}acetamide] | 0 to 25 | 0 to 25 | 
COc1ccc(Nc2nc(NC3CCCCCC3)nc(Oc3ccccc3F)n2)cc1Cl [drawing 1605] |  |  | Inflammation Data (result in words): Not Active
COc1ccc(Nc2nc(NCCCN3CCCC3=O)nc(NC3CCCCCC3)n2)cc1F [Compound 99, 1-[3-({4-(cycloheptylamino)-6-[(3-fluoro-4-methoxyphenyl)amino]-1,3,5-triazin-2-yl}amino)propyl]-2-pyrrolidinone] | 25 to 50 | 0 to 25 | 
COc1ccc(Nc2nc(Cl)nc(NC3CCCCCC3)n2)cc1F [Compound 127, 6-Chloro-N-cycloheheptyl-N′-(3-fluoro-4-methoxy-phenyl)-[1,3,5]triazine-2,4-diamine] | 25 to 50 |  | 
